Experimental data as given in US20230080819A1, “HERBICIDE COMBINATIONS COMPRISING GLUFOSINATE AND TIAFENACIL” (BASF SE, priority 2020, published 2023).

How the values were obtained:
Assay type in all cases: in vivo
Conditions in all cases: 20 DAT
[1] = system: Amaranthus Palmeri (AMAPA); assay: Greenhouse post-emergence weed control, Palmer Amaranth
Galium aparine (GALAP) = assay: Greenhouse post-emergence weed control, Cleavers
[2] = system: Amaranthus tuberculatus (AMATU); assay: Greenhouse post-emergence weed control, waterhemp
[3] = system: Echinochloa crus-galli (ECHCG); assay: Greenhouse post-emergence weed control, barnyardgrass

With `CP(=O)(O)CCC(N)C(=O)O` (racemic) [Glufosinate, (2RS)-2-amino-4-[hydroxy(methyl)phosphinoyl]butyric acid] as the molecule, how does the Solo % activity ([1]; Glufosinate 100 g ai/ha solo) read?
Its Solo % activity is 25%.

What about the Solo % activity ([1]; Glufosinate 200 g ai/ha solo) of the same molecule?
Its Solo % activity is 75%.

And the Solo % activity (Galium aparine (GALAP); Glufosinate 100 g ai/ha solo)?
Its Solo % activity is 60%.

What about the Solo % activity ([2]; Glufosinate 50 g ai/ha solo, post-emergence, AMATU, 1% MSO) of the same molecule?
Its Solo % activity is 10%.

What about the Solo % activity ([2]; Glufosinate 100 g ai/ha solo, AMATU) of the same molecule?
The Solo % activity was 10%.

And the Solo % activity ([2]; Glufosinate 200 g ai/ha solo, AMATU)?
The Solo % activity was 70%.

What about the Solo % activity ([3]; Glufosinate 50 g ai/ha solo, ECHCG) of the same molecule?
Its Solo % activity is 10%.

What about the Solo % activity ([3]; Glufosinate 100 g ai/ha solo, ECHCG) of the same molecule?
The Solo % activity was 25%.

What does the source list for `COC(=O)CCNC(=O)C(C)Sc1cc(-n2c(=O)cc(C(F)(F)F)n(C)c2=O)c(F)cc1Cl` (stereo not shown) [Tiafenacil, tiafenacil]?
Solo % activity ([1]; Tiafenacil 0.15 g ai/ha solo): 0%; Solo % activity ([1]; Tiafenacil 1.5 g ai/ha solo): 25%; Solo % activity (Galium aparine (GALAP); Tiafenacil 0.5 g ai/ha solo): 0%; Solo % activity ([2]; Tiafenacil 1.5 g ai/ha solo, AMATU (Table 2)): 15%; Solo % activity ([2]; Tiafenacil 1.5 g ai/ha solo, AMATU (Table 5)): 15%; Solo % activity ([2]; Tiafenacil 1.5 g ai/ha solo, post-emergence, AMATU, 1% MSO): 15%; Solo % activity ([3]; Tiafenacil 0.5 g ai/ha solo, ECHCG (Table 3)): 10%; Solo % activity ([3]; Tiafenacil 0.5 g ai/ha solo, ECHCG (Table 7)): 10%
